Assays:
[1] = test system: PAF biosynthesis; experiment: PAF biosynthesis inhibition (rat spleen microsomes, [3H]acetyl CoA / lyso PAF); assay type: biochemical; settings: 10 μM, incubation 5-8 minutes
Method: (1) Product PAF was estimated after reaction by liquid scintillation counting of the dried chloroform phase.
(2) [^3 H]Acetyl Co A was used in place of [^14 C],
(3) Incubation (i.e., reaction) times were generally within the range of 5-8 minutes.
(4) Concentrations used were in 1 ml of reaction mixture as follows:
Rat spleen microisomes: 50-150 μg

[2] = test system: rabbit platlets; experiment: aggregation of rabbit platelets (AC50); assay type: cell-based; settings: Oryctolagus cuniculus, Platelet, 50% aggregation, only compounds structurally similar to PAF, read-out: AC50 (concentration of the test compound to obtain 50% aggregation of rabbit platlets)
Description: The results obtained and the compounds tested are set forth in Table I below wherein "% I" represents percent inhibition and "AC50 " represents the concentration of the test compound to obtain 50% aggregation of rabbit platlets. The AC50 results were obtained only for those compounds which are structurally similar to PAF.

Compound	% I (percent inhibition), PAF biosynthesis inhibition [1] [%]	AC50 [2] [nM]
3-Tetradecycloxycarbonylaminopropyl-2-phosphorylcholine [Example 50]	65	–
CCCCCCCCCCCCCCCCOCC(CO)COP(=O)([O-])OCC[N+](C)(C)C (stereo not drawn) [Example 17, 2-Hydroxymethyl-2-deoxy-3-O-hexadecylglycero-1-phosphocholine]	20	24000
CCCCCCCCCCCCCCCCOCC(O)(COC(C)=O)COP(=O)([O-])OCC[N+](C)(C)C (stereo not drawn) [Example 15, 2-Acetoxymethyl-3-O-hexadecylglycero-1-phosphocholine]	71	70
Sodium 2-(2-N-hexadecanoylaminoethyl)-2'-(2-methylsulfinylethyl)phosphate [Example 53]	71	–
CCCCCCCCCCCCCCCCOCC(O)(CO)COP(=O)([O-])OCC[N+](C)(C)C (stereo not drawn) [Example 18, 2-Hydroxymethyl-3-O-hexadecylglycero-1-phosphocholine]	82	38000
CCCCCCCCCCCCCCCCOCC(COC(C)=O)COP(=O)([O-])OCC[N+](C)(C)C (stereo not drawn) [Example 14, 2-Acetoxymethyl-2-deoxy-3-O-hexadecylglycero-1-phosphocholine]	36	340
3-Octadecylaminocarbonylaminopropyl-1-phosphorylcholine [Example 52]	74	–
CCCCCCCCCCCCCCCCOCC(C)(O)COP(=O)([O-])OCC[N+](C)(C)C (stereo not drawn) [Example 12, 3-O-Hexadecyl-2-methylglycero-1-phosphorylcholine]	–	> 100000
3-Hexadecylsulfonaminopropyl-1-phosphorylcholine [Example 51]	34	–
CCCCCCCCCCCCCCCCOCC(CF)COP(=O)([O-])OCC[N+](C)(C)C (stereo not drawn) [Example 16, 2-Deoxy-2-fluoromethyl-3-0-hexadecylglycero-1-phosphocholine]	30	2200
Sodium 2-(2-N-hexadecanoylaminoethyl)-2'-(2 -methylcarbonylaminoethyl)phosphate [Example 46]	90	–
C=C(COCCCCCCCCCCCCCCCC)COP(=O)([O-])OCC[N+](C)(C)C [Example 13, 2-Hexadecyloxymethyl-2-propene-1-phosphorylcholine]	38	1300
